According to patent US20070009891A1, “Method for the isolation of expressed sequence tags in plants” (Metapontum Agrobios S.R.L., priority 2003, published 2007):

Columns and labels:
hard corn seedlings = assay: Germination of hard corn seeds on MSO medium with 5-azaC: seedling phenotype; type: in vivo, Triticum durum; settings: increasing concentration of 5-azaC (0.1-1 mM), aerial part and roots, 24° C. in the dark
Protocol: According to this method, the germination of the seeds is generally effected at a temperature ranging from 20 to 30° C., preferably from 22 to 26° C., in the dark and in the presence of concentrations of 5-azaC ranging from 0.1 mM to 2 mM, preferably from 0.3 mM to 0.5 mM.
Seeds of hard corn (Triticum durum) were sterilized in a solution of ethyl alcohol at 70% for 10 minutes under stirring. After eliminating the ethanol, the seeds were treated with a solution containing sodium hypochlorite (ACE) at 50% and Sodium Dodecyl Sulfate (SDS) at 0.5%, incubated at room temperature for 20 minutes under light stirring.
The seeds were subsequently washed with sterile H2O until the complete removal of the foam (about 7-8 times) and about 15-20 seeds were then placed in a Magenta Box each containing: 30 ml of MSO substrate (Sucrose 15 g/l, Muraschige-Sckug MS salts 2.2 g/l, Thiamin 0.2 mg/l, Myoinositol 50 mg/l, pH 5.6, agar 7 g/l), different concentrations of 5-azac (0.1 mM, 0.3 mM, 0.5 mM and 1 mM) and germinated in a chamber thermostat-regulated at 24° C. in the dark.
Seeds of hard corn left to germinate in MSO medium without 5-azac, were used as a control.

genomic DNA of hard corn = assay: Digestion of genomic DNA with restriction enzymes sensitive to methylation (CfoI, Hpa2, Msp1); design: species or system Triticum durum; settings: seedlings about 21 days after germination; 5-azaC 0.1, 0.3, 0.5, 1 mM vs control
Protocol: Analyses for correlating the demethylation degree of the DNA with an increase in the undifferentiated gene expression were carried out by digestion of the genomic DNA with restriction enzymes sensitive to methylation, i.e. enzymes which preferentially act on hypomethylated DNA.
Analyses for correlating the demethylation degree of the DNA with an increase in the undifferentiated gene expression were carried out by digesting the genomic DNA with the following restriction enzymes: Cfol, Hpa2, Msp1 (Roche), sensitive to methylation.
For each reaction, about 5 μg of total DNA were digested with 20 units of enzyme in a final volume of 150 μl, for a night at 37° C. Each digestion product was precipitated and resuspended in 30μl of H2O. The digestion mixtures were separated on agarose gel at 0.8% and subjected to horizontal electrophoresis, for a night at […] (Sambrook, J. et al., 1989, Cold Spring Harbor Laboratory Press).

[1] = tested on: undifferentiated gene expression in hard corn seedlings; assay: RT-PCR amplification and sequencing of genes expressed in different growth phases, from seedlings germinated with 5-AzaCytidine; design: species or system Triticum durum; settings: MSO germination medium; 0.1-1 mM tested
Text: Furthermore, to confirm the efficiency of the method used, several genes were identified which are expressed in different growth phases of soft corn, of which a large number of sequences are available as this species of corn is more widely studied that hard corn. On the basis of the sequences deposited in data banks (National Center for Biotechnology Information, NCBI; European Bioinformatics Institute, EBI) pairs of oligonucleotides identified in the zones flanking the region encoding the nucleotidic sequence, were prepared, and subsequently used as primers for the amplification of the whole gene being tested. […]
The cDNA inserts were first amplified with the appropriate primers, cloned in the vector p-GEMT and introduced into the competent cells Escherichia coli (E. coli) DH5α. The recombinant clones, containing the expected fragments, were characterized by restriction analysis and their identity was confirmed by effecting sequence reactions carried out using the ABI Prism Big TaqDyeDeoxyTerminator Cycle Sequencing Kit (Applied Biosystems, Nr. 4303149) and analyzed with the automatic ABI 377 DNA Sequencer (Perkin Elmer ABI Prism). […]

Nc1ncn([C@@H]2O[C@H](CO)[C@@H](O)[C@H]2O)c(=O)n1 [5-azaC, 5-AzaCytidine]
phenotype of the seedlings compared with control cultivated without 5-azaC (hard corn seedlings): slowing down in the development of the seedlings | digestion of the genomic DNA by methylation-sensitive restriction enzymes (demethylation degree) (genomic DNA of hard corn): different digestion of the genomic DNA | concentration in the germination medium giving the best results (totipotent gene expression) [1]: 0.3 to 0.5 mM
